Results published in BindingDB's records for doi:10.1016/S0960-894X(00)80304-2 (1993).

Molecular target: Leukotriene B4 receptor 1 (Cavia porcellus)
Assay: Binding affinity against LTB4 receptor in guinea pig membrane

| SMILES | Ki |
| --- | --- |
| CCCc1c(OCCCOc2cc(O)c(C(C)=O)cc2CC)cccc1OC(C)C(=O)O (configuration not stated) [2-{3-[3-(4-Acetyl-2-ethyl-5-hydroxy-phenoxy)-propoxy]-2-propyl-phenoxy}-propionic acid] | 0.019 µM |
| CCCc1c(OCCCOc2cc(O)c(C(C)=O)cc2CC)cccc1OCC(=O)O [{3-[3-(4-Acetyl-2-ethyl-5-hydroxy-phenoxy)-propoxy]-2-propyl-phenoxy}-acetic acid] | 0.005 µM |
